The subject of one experiment is HeLa. Briefly: cells. The note with it: Homo sapiens, 72 h.
Experiment [1] has as its system A549. Briefly: cells. The note with it: Homo sapiens, A549, 72 h.
Description: Cytotoxicity against human A549 cells after 72 hrs by MTT assay
A further experiment can be described thus: cells. The note with it: Homo sapiens, HCT-116, 72 h.
The target in experiment [2] is Tubulin. Description: Inhibition of tubulin (unknown origin) polymerization after 1 hr by multiplate reader method. The format is protein-complex assay, Homo sapiens.
The target in experiment [3] is Tubulin. Briefly: Inhibition of colchicine binding to tubulin (unknown origin). The format is protein-complex assay, Homo sapiens.
For experiment [4], the system named is A549. Description: Induction of growth arrest in human A549 cells assessed as MPM2 levels level at 1 uM after 6 to 48 hrs by immunofluorescence microscopy. The class given is functional, cell-based.
Experiment [5] relates to A549. Briefly: Increase in polyploid cells in human A549 cells at 1 uM after 24 to 72 hrs by propidium iodide staining based flow cytometry. The format is functional, cell-based. Background: Flow cytometry measures light scatter and fluorescence of single cells or particles in a stream.
Experiment [6] concerns A549. Briefly: Induction of growth arrest in human A549 cells assessed as mitotic chromosomes level at 1 uM after 6 to 48 hrs by fluorescence microscopy. The format is functional, cell-based.
The subject of experiment [7] is A549. Briefly: Induction of cell cycle arrest in human A549 cells assessed as accumulation at G2/M phase accumulation at 1 uM after 48 hrs by propidium iodide staining based flow cytometry. The format is functional.
The next experiment concerns the target Tubulin (Homo sapiens) (UniProt P68371+Q9H4B7+P0DPH7+P68366+Q13509+Q71U36+P04350+Q3ZCM7+P07437+P68363+Q9BQE3+Q6PEY2+Q13885+Q9BVA1+Q9BUF5). Briefly: Inhibition of tubulin in human A549 cells assessed as disruption of microtubules at 1 uM incubated for 6 hrs by immunofluorescence staining. The format is cell-based.
Experiment [8] has as its system A549. Briefly: Induction of apoptosis in human A549 cells at 1 uM after 24 to 72 hrs by propidium iodide staining based flow cytometry. The class given is functional, cell-based.

Active and inactive are the calls of the source. No cut-off for these calls is given here. Some results are limits rather than exact numbers.

What is called IC50 is the concentration needed to halve the response being measured. A low value points to inhibition by little substance.

Description for HeLa: Cytotoxicity against human HeLa cells after 72 hrs by MTT assay

On to `COc1cc(OC)c(/C=C/C(=O)c2cc3c(cc2OC)OCS3)c(OC)c1`, for which the IC50 in the experiment on HeLa amounted to 152 nM; with A549 [1], 0.308 µM; in the experiment “cells”, 352 nM.

For `COc1ccc(/C=C/C(=O)c2cc3c(cc2OC)SCO3)cc1`, the results for the IC50 against Tubulin [2] and at Tubulin [3] were 4.15 µM and 108 nM, respectively.

For the compound `COc1ccc(/C=C/C(=O)c2c(O)ccc3c2SCO3)cc1`, the IC50 was found to be 7700 nM in the experiment on HeLa, 10.6 µM with A549 [1] and 6900 nM in “cells”.

As for `COc1ccc(/C=C/C(=O)c2cc3c(cc2OC)SCO3)cc1O`, inhibition in the experiment with A549 [1] was half-maximal at 0.022 µM (IC50).

Consider `O=C(/C=C/c1ccccc1)c1c(O)ccc2c1SCO2`, for which the IC50 in the experiment with HeLa stood at 2750 nM; in the experiment on A549 [1] it was 3.66 µM; in the experiment “cells” it was 2210 nM.

As for `COc1cc2c(cc1C(=O)/C=C/c1cc(Br)c(OC)c(OC)c1)SCO2`, the IC50 is 4040 nM with HeLa, 3.43 µM in the experiment with A549 [1] and 2070 nM in “cells”.

`COc1ccc(/C=C/C(=O)c2cc3c(cc2OCC(=O)O)OCS3)cc1`: the IC50 in the experiment on HeLa is above 10000 nM; in the experiment with A549 [1], above 10 µM; in “cells”, above 10000 nM.

As to `COc1cc(OC)c(/C=C/C(=O)c2cc3c(cc2OCC(=O)O)OCS3)c(OC)c1`, the IC50 in the experiment on HeLa was above 10000 nM; in the experiment with A549 [1], above 10 µM; in the experiment “cells”, above 10000 nM.

As to `COc1ccc(/C=C/C(=O)c2cc3c(cc2OC)OCS3)cc1`, the outcome with A549 [4], with A549 [5], in the experiment on A549 [6], in the experiment with A549 [7] and with A549 [8] was Active. Further, the IC50 in the experiment on HeLa was found to be 109 nM; in the experiment on A549 [1], 0.352 µM; on Tubulin [2], 5.8 µM; at Tubulin [3] it was 489 nM; in “cells”, 275 nM. The inhibition result on Tubulin (Homo sapiens) is “Active”.

`COc1cc(/C=C/C(=O)c2cc3c(cc2OCC(=O)O)OCS3)cc(OC)c1OC`: the IC50 in the experiment with HeLa was above 10000 nM; with A549 [1] it was above 10 µM; in the experiment “cells”, above 10000 nM.

On to `COc1ccc(/C=C/C(=O)c2cc3c(cc2OCCN2CCOCC2)OCS3)cc1F`, for which the IC50 with HeLa stood at 710 nM; in the experiment with A549 [1], 4.29 µM; in “cells” it was 1220 nM.

On to `COc1cc(/C=C/C(=O)c2cc3c(cc2OCCN2CCOCC2)OCS3)cc(OC)c1OC`, for which the IC50 in the experiment with HeLa was determined as 2370 nM; with A549 [1], 2.42 µM; in “cells”, 1440 nM.

As to `COc1cc2c(cc1C(=O)/C=C/c1ccc(Cl)cc1)SCO2`, the IC50 in the experiment with HeLa is 1780 nM; with A549 [1] it was 3 µM; in the experiment “cells” it was 2090 nM.

Consider `O=C(/C=C/c1cccc(Cl)c1)c1c(O)ccc2c1SCO2`, for which the IC50 in the experiment on HeLa came to 2010 nM; with A549 [1] it was 2.61 µM; in the experiment “cells”, 1310 nM.

Turning to `COc1ccc(/C=C/C(=O)c2c(O)ccc3c2SCO3)cc1F`, the figures for the IC50 with HeLa, in the experiment with A549 [1] and in “cells” were 6840 nM, 9.43 µM and 6590 nM, respectively.

In the case of `COc1ccc(/C=C\c2cc(OC)c(OC)c(OC)c2)cc1O` [COMBRETASTATIN A4], the IC50 in the experiment with HeLa came out at 3 nM; in “cells” it was 4 nM.

Regarding `COc1cc2c(cc1C(=O)/C=C/c1ccc(O)cc1)SCO2`, the IC50 was found to be 3260 nM in the experiment with HeLa, 9.08 µM in the experiment on A549 [1] and 8570 nM in the experiment “cells”.

As for `O=C(/C=C/c1ccc(Br)cc1)c1c(O)ccc2c1SCO2`, the IC50 stood at 2650 nM in the experiment on HeLa, 3.91 µM with A549 [1] and 2870 nM in “cells”.

Regarding `COc1cc2c(cc1C(=O)/C=C/c1cccc(Cl)c1)SCO2`, the values for the IC50 with HeLa, with A549 [1] and in “cells” were 1440 nM, 2.04 µM and 1180 nM, respectively.

As for `COc1cc2c(cc1C(=O)/C=C/c1ccc(Br)cc1)SCO2`, the IC50 in the experiment with HeLa was 2370 nM; in the experiment with A549 [1] it was 3.12 µM; in “cells” it was 2160 nM.

With `COc1ccc(/C=C/C(=O)c2cc3c(cc2OC)OCS3)cc1OC`, the concentration for half-maximal inhibition (IC50) in the experiment on HeLa was 568 nM; in the experiment on A549 [1], 1.19 µM; in “cells” it was 740 nM.

`CC(=O)O[C@H]1C(=O)[C@@]2(C)[C@H]([C@H](OC(=O)c3ccccc3)[C@]3(O)C[C@H](OC(=O)[C@H](O)[C@@H](NC(=O)c4ccccc4)c4ccccc4)C(C)=C1C3(C)C)[C@]1(OC(C)=O)CO[C@@H]1C[C@@H]2O` [PACLITAXEL] had an IC50 in the experiment “cells” of 4 nM. In other words, the single-digit nanomolar range.

For `COc1ccc(OC)c(/C=C/C(=O)c2cc3c(cc2OCCN2CCOCC2)OCS3)c1`, the IC50 with HeLa came to 2390 nM; with A549 [1], 2.72 µM; in the experiment “cells”, 1440 nM.

Take `COc1cccc2c1C(=O)c1c(O)c3c(c(O)c1C2=O)C[C@@](O)(C(=O)CO)C[C@@H]3O[C@H]1C[C@H](N)[C@H](O)[C@H](C)O1` [DOXORUBICIN]: the IC50 in the experiment on HeLa came out at 154 nM; with A549 [1] it was 0.124 µM; in the experiment “cells”, 69 nM.

As to `COc1cc2c(cc1C(=O)/C=C/c1cc(OC)c(OC)c(OC)c1)SCO2`, the IC50 in the experiment with HeLa was determined as 4060 nM; with A549 [1], 3.47 µM; in the experiment “cells”, 2230 nM.

Take `CCCOc1cc2c(cc1C(=O)/C=C/c1ccc(OC)c(O)c1)OCS2`: the IC50 in the experiment with A549 [1] came out at 0.009 µM. This lies in the single-digit nanomolar range.

Take `COc1ccc(/C=C/C(=O)c2c(O)ccc3c2SCO3)cc1OC`: the concentration for half-maximal inhibition (IC50) in the experiment with HeLa was 4550 nM; with A549 [1], 5.67 µM; in the experiment “cells”, 2820 nM.

As for `COc1ccc(/C=C/C(=O)c2cc3c(cc2OCCN2CCOCC2)OCS3)cc1OC`, the figures for the IC50 with HeLa, in the experiment on A549 [1] and in “cells” were 3730 nM, 3.78 µM and 2290 nM, respectively.

Take `O=C(/C=C/c1ccc(Cl)cc1Cl)c1cc2c(cc1OCCN1CCOCC1)OCS2`: the IC50 in the experiment with HeLa is 1550 nM; in the experiment with A549 [1], 1.73 µM; in “cells”, 980 nM.

On to `O=C(/C=C/c1ccccc1Cl)c1c(O)ccc2c1SCO2`, for which the results for the IC50 with HeLa, with A549 [1] and in the experiment “cells” were 3070 nM, 3.07 µM and 1670 nM, respectively.

With `CN(C)CCOc1ccc(/C=C/C(=O)c2c(O)ccc3c2SCO3)cc1`, the IC50 in the experiment on HeLa came to 1530 nM; with A549 [1], 2.05 µM; in the experiment “cells”, 1470 nM.

Take `CCCOc1cc2c(cc1C(=O)/C=C/c1ccc(OC)c(O)c1)SCO2`: the IC50 in the experiment on HeLa was determined as 5 nM; in the experiment on A549 [1] it was 0.012 µM; in the experiment “cells”, 12 nM.

In the case of `COc1cc2c(cc1C(=O)/C=C/c1ccc(CCN(C)C)cc1)SCO2`, the IC50 with HeLa turned out to be 1970 nM; in the experiment on A549 [1], 3.4 µM; in “cells”, 2540 nM.

In the case of `COc1cc2c(cc1C(=O)/C=C/c1ccc(OCC(=O)O)cc1)SCO2`, the IC50 in the experiment with HeLa was above 10000 nM; with A549 [1], above 10 µM; in “cells”, above 10000 nM.

As for `COc1cc2c(cc1C(=O)/C=C/c1cccc(OC)c1OC)SCO2`, the values for the IC50 with HeLa, in the experiment on A549 [1] and in the experiment “cells” were 4020 nM, 5.04 µM and 3160 nM, respectively.

As to `COc1cc2c(cc1C(=O)/C=C/c1ccccc1)SCO2`, the values for the IC50 with HeLa, with A549 [1] and in the experiment “cells” were 1920 nM, 4.1 µM and 2250 nM, respectively.

For `COc1ccc(/C=C/C(=O)c2cc3c(cc2OC)OCS3)cc1F`, the IC50 in the experiment on HeLa is 111 nM; in the experiment with A549 [1], 0.32 µM; in the experiment “cells”, 209 nM.
